Drawing on ChEMBL document CHEMBL5036333, “Cryptoyunnanones A-H, Complex Flavanones from Cryptocarya yunnanensis” (J Nat Prod, 2021), this text covers IC50 for nine molecules.

Common to all, as to format: functional, cell-based
One test relates to PC-3. The experiment in a line: Cytotoxicity against human PC-3 cells assessed as cell growth inhibition measured after 48 hrs by MTT assay. Particulars: PC-3, 48 h.
The subject of another test is A549. The experiment in a line: Cytotoxicity against human A549 cells assessed as cell growth inhibition measured after 48 hrs by MTT assay. Particulars: A549, 48 h. (In general: Formazan colour is commonly taken as a measure of viable cells.)
A further test has as its system MDA-MB-231. The test can be described thus: Cytotoxicity against human MDA-MB-231 cells assessed as cell growth inhibition measured after 48 hrs by MTT assay. To be noted: MDA-MB-231, 48 h.
In the next test the test system is HCT-116. The test can be described thus: Cytotoxicity against human HCT-116 cells assessed as cell growth inhibition measured after 48 hrs by MTT assay. To be noted: HCT-116, 48 h.

Where a name gives a salt, the structure may show the parent alone. Where only a bound is given, the exact number is not on record here.

Regarding `O=C1C=CC[C@H](C[C@@H]2C[C@@H]3C[C@@](CCc4ccccc4)(Oc4cc(O)c5c(c43)O[C@H](c3ccccc3)CC5=O)O2)O1`, the IC50 in the test with PC-3 was 7.2 µM; in the test with A549, greater than 10 µM; in the test on MDA-MB-231 it was 8.6 µM; with HCT-116, 6.4 µM.
As for `O=C(O)CCC[C@@H]1C[C@@H]2C[C@@](/C=C/c3ccccc3)(Oc3cc(O)c4c(c32)O[C@@H](c2ccccc2)CC4=O)O1`, the IC50 with PC-3, in the test on A549, in the test with MDA-MB-231 and in the test with HCT-116 was greater than 10 µM throughout.
In the case of `O=C(O)CCC[C@@H]1C[C@@H]2C[C@@](/C=C/c3ccccc3)(Oc3cc(O)c4c(c32)O[C@H](c2ccccc2)CC4=O)O1`, the IC50 with PC-3, with A549, in the test on MDA-MB-231 and in the test with HCT-116 was greater than 10 µM in each case.
Take `COc1cccc2c1C(=O)c1c(O)c3c(c(O)c1C2=O)C[C@@](O)(C(=O)CO)C[C@@H]3O[C@H]1C[C@H](N)[C@H](O)[C@H](C)O1` [DOXORUBICIN HYDROCHLORIDE]: the IC50 in the test on PC-3 and in the test with MDA-MB-231 was 0.2 µM throughout.
Regarding `O=C1C=CC[C@H](C[C@@H]2C[C@@H]3C[C@@](CCc4ccccc4)(Oc4cc(O)c5c(c43)O[C@@H](c3ccccc3)CC5=O)O2)O1`, the IC50 is 7.2 µM in the test with PC-3, greater than 10 µM in the test on A549, 8.5 µM in the test on MDA-MB-231 and 6.9 µM with HCT-116.
For the molecule `COC(=O)CCC[C@@H]1C[C@@H]2C[C@@](/C=C/c3ccccc3)(Oc3cc(O)c4c(c32)O[C@H](c2ccccc2)CC4=O)O1`, the IC50 in the test on PC-3, with A549, with MDA-MB-231 and with HCT-116 was greater than 10 µM throughout.
As to `O=C1C=CC[C@H](C[C@@H]2C[C@@H]3C[C@@](/C=C/c4ccccc4)(Oc4cc(O)c5c(c43)O[C@H](c3ccccc3)CC5=O)O2)O1`, the IC50 is 7.8 µM in the test on PC-3, greater than 10 µM in the test on A549, 9.1 µM in the test with MDA-MB-231 and 8.1 µM in the test on HCT-116.
The matching figures for `O=C1C=CC[C@H](C[C@@H]2C[C@@H]3C[C@@](/C=C/c4ccccc4)(Oc4cc(O)c5c(c43)O[C@@H](c3ccccc3)CC5=O)O2)O1`: 7.6 µM, greater than 10 µM, 9.1 µM and 9 µM.
Regarding `COC(=O)CCC[C@@H]1C[C@@H]2C[C@@](/C=C/c3ccccc3)(Oc3cc(O)c4c(c32)O[C@@H](c2ccccc2)CC4=O)O1`, the half-maximal inhibitory concentration (IC50) with PC-3, in the test with A549, in the test with MDA-MB-231 and with HCT-116 was greater than 10 µM each time.

One may read the IC50 as the concentration that gives 50% inhibition.
